Assay results: ChEMBL document CHEMBL1821626, “Novel 2-thioxothiazolidin-4-one inhibitors of bacterial MurD ligase targeting D-Glu- and diphosphate-binding sites” (Eur J Med Chem, 2011)

How the values were obtained:
[1] = Inhibition of Escherichia coli MurD ligase assessed as residual activity at 500 uM after 15 mins by colorimetric malachite green assay
[2] = Inhibition of Escherichia coli MurD ligase after 15 mins by colorimetric malachite green assay
[3] = Inhibition of Escherichia coli MurD ligase assessed as residual activity at 250 uM after 15 mins by colorimetric malachite green assay

| SMILES | Activity [1] [%] | other results |
| --- | --- | --- |
| O=C(O)CC[C@@H](NC(=O)c1cccc(/C=C2\SC(=S)NC2=O)c1)C(=O)O | – | IC50 [2]: 89 µM |
| O=C(O)CC[C@H](NC(=O)c1cccc(/C=C2\SC(=O)NC2=O)c1)C(=O)O | – | Activity [3]: 96% |
| O=C(O)CC[C@@H](NC(=O)c1ccc(/C=C2\SC(=O)NC2=O)cc1)C(=O)O | – | Activity [3]: 96% |
| CN1C(=O)/C(=C/c2ccc(C(=O)N[C@H](CCC(=O)O)C(=O)O)cc2)SC1=S | 85 | – |
| O=C(O)CC[C@H](NC(=O)c1cccc(/C=C2\SC(=S)NC2=O)c1)C(=O)O | – | IC50 [2]: 172 µM |
| O=C(O)CC[C@@H](NC(=O)c1cccc(/C=C2\SC(=O)NC2=O)c1)C(=O)O | – | Activity [3]: 97% |
| O=C(O)CC[C@H](NC(=O)c1ccc(/C=C2\SC(=S)NC2=O)cc1)C(=O)O | – | IC50 [2]: 10 µM |
| O=C(O)CC[C@@H](NC(=O)c1cccc(CC2SC(=S)NC2=O)c1)C(=O)O (stereo partly specified) | 91 | – |
| O=C(O)CC[C@@H](NC(=O)c1ccc(CC2SC(=S)NC2=O)cc1)C(=O)O (stereo partly specified) | 96 | – |
| O=C(O)CC[C@H](NC(=O)c1ccc(/C=C2\SC(=O)NC2=O)cc1)C(=O)O | – | Activity [3]: 93% |
| O=C(O)CC[C@@H](NC(=O)c1ccc(/C=C2\NC(=O)NC2=O)cc1)C(=O)O | 97 | – |
| O=C(O)CC[C@@H](NC(=O)c1cc(/C=C2\SC(=S)NC2=O)ccc1F)C(=O)O | 67 | – |
| O=C(O)CC[C@@H](NC(=O)c1ccc(/C=C2\SC(=S)NC2=O)cc1)C(=O)O | – | IC50 [2]: 45 µM |

More lines, main results first:

| Activity [1] [%] | SMILES | other results |
| --- | --- | --- |
| 95 | N=C1NC(=O)/C(=C/c2ccc(C(=O)N[C@H](CCC(=O)O)C(=O)O)cc2)S1 | – |
| 96 | O=C(O)CC[C@@H](NC(=O)c1ccc(/C=C2\SC(=S)N(CC(=O)O)C2=O)cc1)C(=O)O | – |
| 91 | COC(=O)CC[C@@H](NC(=O)c1cccc(CC2SC(=S)NC2=O)c1)C(=O)OC (stereo partly specified) | – |
